Results on 1 compound are retold here after patent publication US10774083B2, “Heterocyclic amide compound” (TAKEDA PHARMACEUTICAL COMPANY LIMITED, priority 2016, dated 2020).

The assay deals with T1, human PRS protein (His-Avi-hEPRS (998-1512)) (Homo sapiens, UniProt P07814).
T1 construct: to construct His-Avi-hEPRS (998-1512) expression plasmid; His tag (N); Avi tag (N); TEV cleavage site (ENLYFQG, then S; inferred from the forward primer hEPRS-TEV-NheF) (N); made in house; host or cells: E. coli BL21(DE3)
T1 sequence (P07814 998-1512 limits assumed): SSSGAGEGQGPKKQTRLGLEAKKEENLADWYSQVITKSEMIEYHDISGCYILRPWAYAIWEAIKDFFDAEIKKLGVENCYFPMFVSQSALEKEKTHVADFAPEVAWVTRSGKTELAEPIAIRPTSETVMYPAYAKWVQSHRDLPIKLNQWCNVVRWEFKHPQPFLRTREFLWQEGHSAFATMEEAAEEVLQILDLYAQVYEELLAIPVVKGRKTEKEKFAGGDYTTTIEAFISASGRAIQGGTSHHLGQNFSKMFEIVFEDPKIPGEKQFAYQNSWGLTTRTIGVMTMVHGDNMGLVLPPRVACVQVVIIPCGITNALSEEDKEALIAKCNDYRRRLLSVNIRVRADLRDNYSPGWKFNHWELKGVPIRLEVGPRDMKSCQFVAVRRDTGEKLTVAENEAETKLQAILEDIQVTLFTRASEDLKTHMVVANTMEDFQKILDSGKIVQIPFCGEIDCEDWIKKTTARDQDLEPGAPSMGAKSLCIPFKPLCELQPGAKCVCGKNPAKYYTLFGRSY
As to the kind of experiment: PRS inhibitory activity ([32P]pyrophosphate exchange enzyme assay). It is filed as biochemical. As to conditions: 300 nM test compound; read-out: inhibitory rate (%) of PRS. In outline:
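Compound was pre-incubated 60 min with 40 nM His-Avi-hEPRS (998-1512) (stock, E. coli-expressed) in Tris pH 7.5/KCl/DTT/Tween/MgCl2. Reaction began with substrate mix containing 300 μM ATP, 160 μM L-proline, 400 μM [32P]pyrophosphate (stock levels) and ran 30 min at room temperature. Charcoal-bound radioactivity was counted; inhibition was relative to no-reaction control.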

Regarding `Cc1cc(N2CC[C@@](C#N)(C3CC3)C2=O)cc(C(=O)NCc2cc(F)cc(-c3cnn(C)c3)c2)n1` [Example 159, 4-((3S)-3-cyano-3-cyclopropyl-2-oxopyrrolidin-1-yl)-N-(3-fluoro-5-(1-methyl-1H-pyrazol-4-yl)benzyl)-6-methylpyridine-2-carboxamide], the inhibition at 0.3 µM was determined as 101%.
